According to patent US12110496B2, “Method of determining the zygosity of event MON 88302” (priority 2010, dated 2024):

What was measured:
[1] = tested on: canola comprising event RT73 (Genuity Roundup Ready Canola, variety 34-65); test: Field trial of glyphosate tolerance, RT73 event (crop injury, maturity, seed moisture, yield); type: in vivo, Brassica napus
Text: (§1) The current registered glyphosate rate for the Genuity™ Roundup Ready® Canola system (event RT73) is a single application of 675 g ae/ha or two 450 g ae/ha applications up to the six leaf stage of the canola crop. RT73 was compared with the MON 88302 event at multiple single application rates of glyphosate. Applications were made from post emergence to the first flower of the canola crop. The Genuity™ Roundup Ready® Canola system (RT73 event) was represented by the commercial open pollinated variety 34-65, and event MON88302 was transformed into the Ebony germplasm.
(§2) Eight trials were established with six taken to harvest (one site was lost to drought and one site was lost to hail, and data from one harvested site was not used due to the coefficient of variation (CV) exceeding the predetermined cut-off value). Standard canola growing practices were utilized throughout the season to optimize plant growth. Pre-emergent and post-emergent conventional herbicides and seed treatment containing fungicide and insecticide were used to minimize pest pressure. Trials were set up as a split block design with Genuity™ Roundup Ready® Canola (RT73 event) or MON 88302 systems blocked and herbicide rates randomized within the block. Plots were two by six meters and replicated three times. Plots were sprayed with handheld boom sprayers at 100-110 l/ha application rate at the appropriate crop stage. The Canadian formulation of Roundup WeatherMAX® (540 g/L) was used as the glyphosate product. The four to six leaf stage was defined as four to six true leaves on the main stem, and first flower was when 50% of the plants had at least one flower. Percent chlorosis (% CHLR) was recorded seven to ten days after herbicide application (DAT or days after treatment). Percent chlorosis is a visual estimate of the amount of yellowing on the leaves of plants as a result of herbicide treatment compared to the untreated check on a 1 to 100 scale. Percent growth reduction (% GR) was recorded 14-21 days after herbicide application (DAT). Percent growth reduction is a visual evaluation used to describe plant growth reduction consisting of, but not limited to, reduced height and/or quantity of foliage for the treated area. The evaluation pertains only to the above ground portion of the plant. Percent growth reduction is compared to the non-treated check and is rated on a 1 to 100 scale. Maturity was recorded as days after planting to when 30% of the seeds on the main raceme are brown/black in color. Percent seed moisture was recorded electronically during harvesting. All plots were swathed and then allowed to dry until seed moisture was low enough to facilitate harvesting. Weight and seed moisture was recorded electronically during harvesting and converted to bushels/acre at 10% seed moisture. Each location was analyzed individually and averages across locations were analyzed using statistical software. Data were screened for outliers using the standard two-pass procedure based on deleted studentized residuals using a False Discovery Rate (FDR) adjustment for an experiment-wise Type I error rate of 5% at each location. Outliers were removed prior to analysis. The standard analysis of variance for a split-plot design was performed by mixed model with restricted maximum likelihood estimation-variety and herbicide treatments were treated as fixed effects, replications and locations were random effects. Least-squares means were calculated for each variety and each treatment, and t-tests with comparison-wise error rates of 5% were used to determine the significance between variety and control at each herbicide treatment level on canola growth characteristics. Crop injury, maturity, and yield were measured to assess benefits.

[2] = tested on: Brassica napus events from construct 1; test: First year efficacy field trials, construct 1 events; type: in vivo
Procedure: (§3) The 25 events were also evaluated in first year field testing for efficacy located at the same testing site as the agronomy field trials. Efficacy field trials were initiated to evaluate the vegetative and reproductive tolerance of the events to sequential applications of glyphosate at various application timings and rates. The 16 R2 events from construct 1 were evaluated at 5 locations. The 3 R2 events from construct 2, the 3 R2 events from construct 4, and the 3 R2 events from construct 5 were evaluated at 4 locations. Each study contained the positive isoline of each event and two commercial varieties. A split plot design with 3 replications was used with herbicide treatments as whole plots and event entries as subplots. A non-sprayed treatment was included for comparison.
Events were evaluated for vegetative and reproductive tolerance to either a single application of 1.6 lb AE/A or two sequential applications of 0.8 lb AE/A when applied from crop emergence up to first flower. Roundup WeatherMAX® was applied at three different rates that were equivalent to 2×, 4×, and 8× of the single application rate (Table 2). The initial application was made at the four leaf stage followed by a second application at the prebolt stage. […]
Data Collection was performed as above. Glyphosate injury was assessed as follows. […] Vegetative injury was rated after the first glyphosate application while reproductive percent chlorosis/necrosis was evaluated after the second application using a scale ranging from 0% (no injury) to 100% (plant death). Growth reduction was evaluated at 14 to 21 days after each application using a scale ranging from 0 to 100%. Vegetative growth reduction was evaluated after the first application while reproductive growth reduction was determined after the sequential application. Least-squares means were calculated for each combination of glyphosate level and event, and t-tests were used to determine the significance of the effects of glyphosate on event tolerance. […]

[3] = tested on: canola comprising event MON 88302 (Ebony germplasm); test: Field trial of glyphosate tolerance, MON 88302 event (crop injury, maturity, seed moisture, yield); type: in vivo, Brassica napus; settings: for 7-10 DAT % CHLR Avg / 14-21 DAT % GR Avg: MON88302
Text: as §1, §2

[4] = tested on: Brassica napus events from construct 2; test: First year efficacy field trials, construct 2 events; type: in vivo
Procedure: as §3, with “A split plot design with 3 replications was used with herbicide treatments as whole plots and event entries as subplots. A non-sprayed treatment was included for comparison.” left out
Events were evaluated for vegetative and reproductive tolerance to either a single application of 1.6 lb AE/A or two sequential applications of 0.8 lb AE/A when applied from crop emergence up to first flower. […]
Data Collection was performed as above. Glyphosate injury was assessed as follows. […] Vegetative injury was rated after the first glyphosate application while reproductive percent chlorosis/necrosis was evaluated after the second application using a scale ranging from 0% (no injury) to 100% (plant death). Growth reduction was evaluated at 14 to 21 days after each application using a scale ranging from 0 to 100%. Vegetative growth reduction was evaluated after the first application while reproductive growth reduction was determined after the sequential application. […]

[5] = glyphosate 450 g ae/ha at 1st flower
[6] = glyphosate 450 g ae/ha at 4-6 leaf
[7] = glyphosate 900 g ae/ha at 1st flower
[8] = glyphosate 900 g ae/ha at 4-6 leaf
[9] = glyphosate 1800 g ae/ha at 1st flower
[10] = glyphosate 1800 g ae/ha at 4-6 leaf
[11] = glyphosate 3600 g ae/ha at 1st flower
[12] = glyphosate 3600 g ae/ha at 4-6 leaf
[13] = glyphosate 11800 g ae/ha at 4-6 leaf

For `O=C(O)CNCP(=O)(O)O` [glyphosate, N-phosphonomethyl-glycine], which yield reduction ([1]; 2× the proposed rate of 1800 g ae/ha at four to six leaf) is on record?
The yield reduction was 30%.

And the “yield vs unsprayed” value ([1]; 1800 and 3600 g ae/ha at both stages and 900 g/ha at first flower)?
Its value is “significant yield reduction”.

And the yield reduction ([1]; 1800 g ae/ha at four to six leaf)?
The yield reduction was 11.4%.

What about the “maturity” value ([1]; 3600 g ae/ha at both four to six leaf and first flower) of the same compound?
Its value is “delayed significantly”.

And the “yield reduction” value ([1]; all rates shown at first flower (FIG. 3))?
The value was “significant yield reduction”.

What about the “7-10 DAT % CHLR Avg” value [1, 5] of the same compound?
Its value is 0.6%.

And the “14-21 DAT % GR Avg” value [1, 5]?
The value was 0.8%.

And the “7-10 DAT % CHLR Avg” value [1, 6]?
The value was 0.3%.

What about the “14-21 DAT % GR Avg” value [1, 6] of the same compound?
The value was 0.9%.

What about the “7-10 DAT % CHLR Avg” value [1, 7] of the same compound?
Its value is 1.8%.

What about the “14-21 DAT % GR Avg” value [1, 7] of the same compound?
The value was 0.3%.

What about the “7-10 DAT % CHLR Avg” value [1, 8] of the same compound?
The value was 2.2%.

And the “14-21 DAT % GR Avg” value [1, 8]?
The value was 1.3%.

What about the “7-10 DAT % CHLR Avg” value [1, 9] of the same compound?
The value was 6.7%.

What about the “14-21 DAT % GR Avg” value [1, 9] of the same compound?
The value was 3.3%.

What about the “7-10 DAT % CHLR Avg” value [1, 10] of the same compound?
Its value is 4.7%.

And the “14-21 DAT % GR Avg” value [1, 10]?
Its value is 5.3%.

And the “7-10 DAT % CHLR Avg” value [1, 11]?
Its value is 10%.

And the “14-21 DAT % GR Avg” value [1, 11]?
Its value is 8.1%.

What about the “7-10 DAT % CHLR Avg” value ([1]; glyphosate 3600 g ae/ha at 1st flower, listed as Glyphosate) of the same compound?
Its value is 10.0%.

What about the “7-10 DAT % CHLR Avg” value [1, 12] of the same compound?
Its value is 10%.

What about the “14-21 DAT % GR Avg” value [1, 12] of the same compound?
Its value is 20.8%.

What about the “7-10 DAT % CHLR Avg” value ([1]; glyphosate 3600 g ae/ha at 4-6 leaf, listed as Glyphosate) of the same compound?
Its value is 10.0%.

What about the “vegetative injury” value ([2]; 2× product concept rate) of the same compound?
The value was “very minor”.

What about the “yield” value ([2]; regardless of rate, one event excepted at 6.4 lb AE/A followed by 6.4 lb AE/A) of the same compound?
Its value is “not negatively impacted”.

What about the “vegetative and reproductive tolerance to glyphosate” value ([2]; sequential applications at four leaf and prebolt, 2×, 4×, 8× rates) of the same compound?
Its value is “excellent vegetative and reproductive tolerance”.

And the “7-10 DAT % CHLR Avg” value [3, 5]?
The value was 0.0%.

And the “14-21 DAT % GR Avg” value [3, 5]?
Its value is 0.0%.

What about the “7-10 DAT % CHLR Avg” value [3, 6] of the same compound?
The value was 0.0%.

And the “14-21 DAT % GR Avg” value [3, 6]?
The value was 0.3%.

And the “7-10 DAT % CHLR Avg” value [3, 7]?
Its value is 0.3%.

What about the “14-21 DAT % GR Avg” value [3, 7] of the same compound?
Its value is 0.8%.

And the “7-10 DAT % CHLR Avg” value [3, 8]?
Its value is 0.7%.

What about the “14-21 DAT % GR Avg” value [3, 8] of the same compound?
Its value is 0.7%.

And the “7-10 DAT % CHLR Avg” value [3, 9]?
Its value is 0.9%.

And the “14-21 DAT % GR Avg” value [3, 9]?
The value was 0.0%.

What about the “7-10 DAT % CHLR Avg” value [3, 11] of the same compound?
Its value is 4.7%.

And the “14-21 DAT % GR Avg” value [3, 11]?
The value was 1.1%.

And the “7-10 DAT % CHLR Avg” value [3, 12]?
Its value is 1.7%.

And the “14-21 DAT % GR Avg” value [3, 12]?
Its value is 0.3%.

What about the “7-10 DAT % CHLR Avg” value [3, 13] of the same compound?
Its value is 1.7%.

What about the “14-21 DAT % GR Avg” value [3, 13] of the same compound?
The value was “no percent growth reduction”.

And the “14-21 DAT % GR Avg” value ([3]; glyphosate 11800 g ae/ha at 4-6 leaf, listed as Glyphosate)?
The value was 0.0%.

And the “yield reduction” value ([3]; MON 88302 plants, 1800 g ae/ha and 2× at four to six leaf (FIG. 2))?
Its value is “No significant yield reductions”.

What about the “maturity” value ([3]; MON 88302 plants, 1800 g ae/ha at four to six leaf) of the same compound?
Its value is “significant shortening of maturity”.

And the “maturity” value ([3]; MON 88302 plants, all rates except 1800 g ae/ha at four to six leaf)?
Its value is “No delay in maturity”.

What about the “yield vs unsprayed” value ([3]; MON 88302 plants, any rate or timing) of the same compound?
Its value is “No significant differences in yield”.

And the “yield reduction” value ([3]; MON 88302 plants, glyphosate rates at first flower (FIG. 3))?
Its value is “No significant yield reductions”.

What about the “yield” value ([4]; all construct 2 events, regardless of application rate) of the same compound?
The value was “significantly reduced the yield”.

What about the “injury” value ([4]; construct 2 events, all glyphosate rates tested) of the same compound?
Its value is “Unacceptable levels of injury”.
